According to US11035008B2, “Biomarkers for cancer” (BERGENBIO ASA, priority 2015, dated 2021):

Legend:
pErk = pErk in CD33-positive cells, MOLM13 systemic xenograft model, flow cytometry; format: in vivo, mice; conditions: 50 mg/kg for 4 days
Method: (§1) Material from an in vivo MOLM13 systemic model was also evaluated by flow cytometry. Expression of the previously evaluated biomarkers was examined in cells isolated from bone marrows and spleens of animals with systemic AML disease (MOLM13, inoculated for 7 days prior to treatment) treated with BGB324 at 50 mg/kg for 4 days. The spleens analysed were from the same study that was analysed by microarray, as mentioned above. The bone marrows were from an identical study that was done at a later time point to get more material for flow analyses.
(§2) Cells isolated from spleens and bone marrows were assessed for phosphorylation of Erk, PLCγ1 and Akt, and expression of PHGDH and SLFN11. The samples were also co-stained with CD33, and biomarker expression was only evaluated in CD33-positive cells.

PHGDH [1] = test: PHGDH in CD33-positive cells, MOLM13 systemic xenograft model, flow cytometry; format: in vivo, mice; conditions: 50 mg/kg for 4 days
Method: as §1, §2

totErk = test: Total Erk in AML cell panel, long-term treatment, flow cytometry; format: cell-based, human
Method: (§3) Staining of Cells for Flow Cytometry, General Protocol: • Live cells were centrifuged at 300 G for 5 minutes, washed once with PBS and centrifuged again. Cells were then fixed in 4% PFA in PBS for 10 minutes at 37° C., and resuspended in PBS. Unless processed immediately, samples were at this point stored in PBS at 4° C. (up to three weeks) or at −80° C. (for long-term storage). If intracellular epitopes were stained, cells were permebealized in 90% MeOH for 30 minutes on ice. Unless processed immediately, samples were also be stored in 90% MeOH at −20° C. for up to two months. • Further staining procedure (permebealized or non-permebealized cells): • Cells were washed 1× in PBS and blocked in blocking buffer; either PBS+0.5% BSA or PBS+1:1000 Octagam (5 mg/ml) for 15 minutes at room temperature. Thereafter, cells were incubated with primary AB at the indicated dilutions in incubation buffer (IB, PBS+0.5% BSA) for 1 hour at room temperature. Cells were then washed 3× with IB and incubated with secondary AB (conjugated to a fluorescent flurophore) at 1:1000 dilution in IB for 30 minutes at room temperature. Finally, cells were washed 3× in IB and resuspended in PBS. Cells were analyzed immediately, or stored for up to 24 hours at 4° C. before analysis. • Analysis of cells was done on a BD LSR Fortessa or a BD C6 Accuri flow cytometer, and further processing was done using FlowJo v.7.6. • All incubation steps (but not storage) were done on a spinning wheel or gentle shaker.
(§4) The diversity of AML cells and their responses was investigated using a panel of AML cell lines and assessing their responses after BGB324-treatment.
Long-term treatment was done in complete medium, without starvation. The responders were treated with 0.05, 0.1 or 0.3 μM BGB324, whereas the non-responders were treated with only a single dose of 2.5 μM BGB324. The cells were fixed after 24, 48 or 72 hours, and the samples were stored in 90% MeOH at −20° C. until all samples were harvested, and stained for flow at the same time.

Mv4-11 cells = test: IC50 of BGB324 by resazurin assay, Mv4-11; format: cell-based; conditions: Homo sapiens, Mv4-11 (responder)
Excerpt: as §4

Kasumi cells = test: IC50 of BGB324 by resazurin assay, Kasumi; format: cell-based; conditions: Homo sapiens, Kasumi (non-responder)
Excerpt: as §4

PHGDH [2] = test: PHGDH by western blot in MOLM13 cells treated in vitro; format: cell-based, human
Method: (§5) Western Blot, General Protocol: • For western blot analysis, cells were lysed on ice using NP-40 lysis buffer with protease- and phosphatase inhibitors. Total protein concentration in lysates was measured using a BCA protein assay kit following the manufacturers instructions. 10% NuPAGE® Bis-Tris precast gels were loaded with 30-50 μg of protein in each well diluted in sample buffer and antioxidant. A 1:1 mix of MagicMark™ XP Western Protein Standard (Invitrogen) and SeeBlue® Plus 2 Pre-Stained Standard was used as protein standard. Gels were run at 50V for 20 min, then at 100V for 1 h 30 min. Blotting was done on ice for 1 h 30 min at 100V onto PVDF (pre-activated with MeOH) or nitrocellulose membranes. Membranes were washed in TBS-0.1% Tween-20 (TBS-T), and blocked in TBS-T 5% BSA for at least 1 h at RT. Primary ABs were added at 1:1000 in TBS-T 5% BSA (rabbit-anti-actin AB was added at 1:2000) in TBS-T 5% BSA, and membranes were incubated over night at 4° C. Membranes were then washed 3× in TBS-T, and incubated in HRP-conjugated secondary ABs at 1:5000 dilution in TBS-T 5% milk for 45 min at RT. Membranes were developed for 1 min using ECL-reagents and imaged with chemiluminescence using a Molecular Imager ChemiDoc™ XRS (BioRad). • All incubation- and washing steps were done on a roller.

OCI-M1 cells = test: IC50 of BGB324 by resazurin assay, OCI-M1; format: cell-based; conditions: Homo sapiens, OCI-M1 (non-responder)
Excerpt: as §4

MOLM13 cells = test: IC50 of BGB324 by resazurin assay, MOLM13; format: cell-based; conditions: Homo sapiens, MOLM-13, MOLM13 (responder)
Excerpt: as §4

PHGDH [3] = test: PHGDH by western blot in Mv4-11 subcutaneous xenograft tumours; format: in vivo, mice; conditions: for PHGDH in tumour lysates (western blot): Mv4-11 sub-q
Method: as §5
To validate the reduction of PHGDH in in vivo samples found by microarray, the PHGDH expression in tumour material from in vivo samples was investigated by western blot. […] Therefore, it was investigated at what time point PHGDH is reduced after treatment with a single high dose of BGB324 100 mg/kg.
Tumours where the mice had been treated with a single lower dose of BGB324, 50 mg/kg, were also examined (tumour material was harvested at different time points, from 4-72 hours).

total Axl = test: Total Axl by flow cytometry in MOLM13 cells (Example 2); format: cell-based, human; conditions: MOLM13 starved, 3 μM, 40 minutes
Method: as §3, with “Cells were then washed 3× with IB and incubated with secondary AB (conjugated to a fluorescent flurophore) at 1:1000 dilution in IB for 30 minutes at room temperature. Finally, cells were washed 3× in IB and resuspended in PBS.” left out, “shaker. […]” for “shaker.”

With `Nc1nc(Nc2ccc3c(c2)CC[C@@H](N2CCCC2)CC3)nn1-c1cc2c(nn1)-c1ccccc1CCC2` [BGB324, 1-(6,7-dihydro-5H-benzo[6,7]cyclohepta[1,2-c]pyridazin-3-yl)-N3-((7-(S)-pyrrolidin-1-yl)-6,7,8,9-tetrahydro-5H-benzo[7]annulene-2-yl)-1H-1,2,4-triazole-3,5-diamine] the pErk (pErk; bone marrows) was “significant reduction”, the pErk (pErk; spleens) was “significant reduction” and the PHGDH expression (PHGDH [1]; bone marrows) was “significant reduction”. For the same compound, the PHGDH expression (PHGDH [1]; spleens) was “significant reduction”, the Erk expression (totErk; Kasumi, 2.5 μM, significant at 48 and 72 hours) was “reduction of Erk expression” and the Erk expression (totErk; MOLM13, 0.3 μM, 48 and 72 hours) was “normalized to control-levels”. The Erk expression (totErk; MOLM13, 0.3 μM, 24 hours) was “slight, but significant, reduction of Erk expression”, the Erk expression (totErk; Mv4-11, 0.3 μM, 24, 48 and 72 hours) was “gradual reduction of Erk expression” and the Erk expression (totErk; Mv4-11, 0.3 μM, 48 and 72 hours) was “significantly lower than control cells”. The Erk expression (totErk; OCI-AML5, 2.5 μM, significant at 24 and 48 hours) was “reduction of Erk expression”, the IC50 (Mv4-11 cells) was 140 nM and the IC50 (Kasumi cells) was 1200 nM. The “PHGDH by western blot” value (PHGDH [2]; 2 uM, time-course of 3-7 hours) was “did not see reduction of PHGDH”, the “PHGDH by western blot” value (PHGDH [2]; 0.3 and 0.6 uM, three days) was “did not see reduction of PHGDH” and the IC50 (OCI-M1 cells) was 1800 nM. For the same compound, the IC50 (MOLM13 cells) was 450 nM, the “PHGDH in tumours (western blot)” value (PHGDH [3]; Mv4-11, single dose 50 mg/kg, harvested 4-72 hours) was “stable reduction of PHGDH was observed from 16 hours and onwards” and the “PHGDH in tumours (western blot)” value (PHGDH [3]; Mv4-11, single dose 100 mg/kg, 6 hours after treatment) was “not 6 hours after treatment”. For the same compound, the “PHGDH in tumours (western blot)” value (PHGDH [3]; Mv4-11, single dose 100 mg/kg, 8 hours after treatment) was “reduction of PHGDH observed in three parallel tumours”, the “PHGDH in tumour lysates (western blot)” value (PHGDH [3]; 25 mg/kg BID, 50 mg/kg BID or 50 mg/kg QD, 15 days) was “reduction of PHGDH was observed in most of the tumours” and the “PHGDH in tumour lysates (western blot)” value (PHGDH [3]; 100 mg/kg single dose, tumours harvested 6 h after dosing) was “only in one of two tumours”. For the same compound, the “Total Axl expression” value (total Axl) was “did not change”.
